We go through 26 compounds from EP4585599A1, “NITROGEN-CONTAINING FUSED RING COMPOUND, INTERMEDIATE THEREOF, PREPARATION METHOD THEREFOR AND USE THEREOF” (Hangzhou Synrx Therapeutics Biomedical Technology Co., Ltd., priority 2022, dated 2024).

For test [1], the target named is T1, helicase domain of the Pol θ protein (Homo sapiens, UniProt O75417).
T1 construct: The helicase domain of the Pol θ protein was purified from insect protein expression system; made in house; host or cells: insect protein expression system
Briefly: Biochemical Activity Assay (ADP Glo Assay) of Pol θ inhibitor, ATPase activity. In general terms: In ADP-Glo the light output rises with the ADP produced.

Test [2] can be described thus: cells. The note with it: Homo sapiens, DLD-1, 240 h.
[3] abbreviates: ADP-Glo assay, ATPase activity of Pol θ helicase domain, ssDNA substrate, read-out: Biochemical assay IC50.
[4] abbreviates: ADP-Glo, ssDNA substrate, 60 min at room temperature, read-out: Biochemical assay IC50.
The mark [5] stands for this setting: read-out: Cell viability assay IC50 (nM), CTG assay, CellTiter Glo, read on Day 10, cell line not given.
Setting [6] is: read-out: Cell viability assay IC50 (nM), CTG on Day 10, cell line not given (method: DLD1 and DLD1^-/- cells).
Setting [7] is: read-out: Biochemical assay IC50.

“And” between values parts separate entries of the source, which are not always exact repeats. Equal entries are not always repeated. Where two headings read alike, the source gives them in different places. Some results are limits rather than exact numbers.

T1 sequence (O75417 102-554 limits assumed): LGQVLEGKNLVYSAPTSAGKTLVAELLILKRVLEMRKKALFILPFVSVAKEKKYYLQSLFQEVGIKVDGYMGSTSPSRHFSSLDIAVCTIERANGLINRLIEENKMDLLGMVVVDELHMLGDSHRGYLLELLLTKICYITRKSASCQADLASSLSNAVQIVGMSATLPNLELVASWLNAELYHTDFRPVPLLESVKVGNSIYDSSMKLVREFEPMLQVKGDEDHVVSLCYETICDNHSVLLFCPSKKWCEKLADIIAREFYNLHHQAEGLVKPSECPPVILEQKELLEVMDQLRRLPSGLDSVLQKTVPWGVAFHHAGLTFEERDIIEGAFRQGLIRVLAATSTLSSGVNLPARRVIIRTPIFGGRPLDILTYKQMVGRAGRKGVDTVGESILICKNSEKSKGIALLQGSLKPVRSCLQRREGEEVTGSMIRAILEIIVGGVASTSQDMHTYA

With `COc1ccccc1-c1cnncc1C(=O)Nc1nc2ccc(-c3ccn[nH]3)nc2s1` [Comparative Example 2, reference compound], in test [1] (setting [3]), the half-maximal inhibitory concentration (IC50) – broadly, the midpoint of a concentration-inhibition curve – is 307 nM. Take `COc1cnc(Cl)cc1-c1cc(C)ncc1C(=O)Nc1nc2ccc(C3=CCC(O)CC3)nc2s1` (centres unmarked) [Example 1, 2'-chloro-N-(5-(4-hydroxycyclohex-1-en-1-yl)thiazol[5,4-b]pyridin-2-yl)-5'-methoxy-6-methyl-[4,4'-bipyridine]-3-carboxamide]: the IC50 in test [1] (Biochemical assay IC50 (nM)) is < 50 nM and 7.07 nM. `COc1cnc(Cl)cc1-c1cc(C)ncc1C(=O)Nc1nc2cc(C3=CCC(O)CC3)cnc2s1` (centres unmarked) [Example 2]: the IC50 in test [1] (setting [3]) is 118 nM; in test [1] (setting [4]), 50 to 200 nM; in test [2] (setting [5]) it was 3160 nM; in test [2] (setting [6]), more than 1000 nM.

Consider `COc1cnc(Cl)cc1-c1cc(C)ncc1C(=O)Nc1nc2ncc(C3=CCC(O)CC3)cc2s1` (centres unmarked) [Example 3], for which the IC50 in test [1] (setting [3]) was 2.51 nM; in test [1] (setting [4]) it was less than 50 nM; in test [2] (setting [5]) it was 13.6 nM; in test [2] (setting [6]) it was less than 100 nM. `COc1cnc(Cl)cc1-c1cnccc1C(=O)Nc1nc2ccc(C3=CCC(O)CC3)nc2s1` (centres unmarked) [Example 4]: the IC50 is 19.1 nM in test [1] (setting [3]), less than 50 nM in test [1] (setting [4]), 736 nM in test [2] (setting [5]) and 500 to 1000 nM in test [2] (setting [6]). With `COc1cccc(F)c1-c1cc(C)ncc1C(=O)Nc1nc2ccc(C3=CCC(O)CC3)nc2s1` (centres unmarked) [Example 5], the IC50 in test [1] (setting [3]) was 81.5 nM; in test [1] (setting [4]), 50 to 200 nM; in test [2] (setting [5]), 153 nM; in test [2] (setting [6]), 100 to 500 nM. In the case of `COc1cnc(Cl)cc1-c1cncnc1C(=O)Nc1nc2ccc(C3=CCC(O)CC3)nc2s1` (centres unmarked) [Example 6], the IC50 in test [1] (setting [3]) was 193 nM; in test [1] (setting [4]), 50 to 200 nM; in test [2] (setting [5]) it was 794 nM; in test [2] (setting [6]) it was 500 to 1000 nM.

For the compound `COc1cnc(Cl)c(F)c1-c1cc(C)ncc1C(=O)Nc1nc2cccnc2s1` [Example 38, 2'-chloro-3'-fluoro-5'-methoxy-6-methyl-N-(thiazol[5,4-b]pyridin-2-yl)-[4,4'-bipyridine]-3-carboxamide], the half-maximal inhibitory concentration (IC50) in test [1] (Biochemical assay IC50 (nM)) is < 50 nM and 17.3 nM. Still for that read-out and setting: the value for `COc1cnc(Cl)c(F)c1-c1cc(C)ncc1C(=O)Nc1nc2c(s1)CN(CC1CCOC1)CC2` (centres unmarked) [Example 40, 2'-chloro-3'-fluoro-5'-methoxy-6-methyl-N-(5-((tetrahydrofuran-3-yl)methyl)-4,5,6,7-hexahydrothiazolo[5,4-c]pyridin-2-yl)-[4,4'-bipyridine]-3-carboxamide] was 50 to 200 nM and 14.9 nM; that for `COc1cnc(Cl)cc1-c1cc(C)ncc1C(=O)Nc1nc2ccc(N3CCN(C)CC3)nc2s1` [Example 43, 2'-chloro-5'-methoxy-6-methyl-N-(5-(4-methylpiperazin-1-yl)thiazol[5,4-b]pyridin-2-yl)-[4,4'-bipyridine]-3-carboxamide] was 50 to 200 nM and 51.9 nM. With `COc1cnc(Cl)cc1-c1cc(C)ncc1C(=O)Nc1nc2ccc(-c3ccc(Cl)cn3)nc2s1` [Example 44, 2'-chloro-N-(5-(5-chloropyridin-2-yl)thiazol[5,4-b]pyridin-2-yl)-5'-methoxy-6-methyl-[4, 4'-bipyridine]-3-carboxamide], the IC50 in test [1] (Biochemical assay IC50 (nM)) is < 50 nM and 5.81 nM. Consider `COc1cnc(Cl)cc1-c1cc(C)ncc1C(=O)Nc1nc2c(s1)CN(c1ccc(Cl)cn1)CC2` [Example 92, 2'-chloro-N-(5-(5-chloropyridin-2-yl)-4,5,6,7-tetrahydrothiazol[5,4-c]pyridin-2-)-5'-methoxy-6-methyl-[4,4'-bipyridine]-3-carboxamide], for which, in test [1] (Biochemical assay IC50 (nM)), the IC50 is 50 to 200 nM and 59.9 nM. `[2H]C1(O)CCN(c2ccc3nc(NC(=O)c4cnc(C)cc4-c4cc(Cl)ncc4OC)sc3n2)CC1` [Example 112, 2'-chloro-N-(5-(4-hydroxypiperidin-1-yl-4-deuterium)thiazol[5,4-b]pyridin-2-yl)-5'-met hoxy-6-methyl-[4,4'-bipyridine]-3-carboxamide] had a half-maximal inhibitory concentration (IC50) in test [1] (Biochemical assay IC50 (nM), ADP-Glo assay, ATPase activity of Pol θ helicase domain, ssDNA substrate) of 10 nM. For the compound `COc1cnc(Cl)cc1-c1cc(C)ncc1C(=O)Nc1nc2cnc(C3=CC[C@H](O)CC3)cc2s1` [Example 114, (R)-2'-chloro-N-(6-(4-hydroxycyclohex-1-en-1-yl)thiazolo[4,5-c]pyridin-2-yl)-5'-methoxy-6-methyl-[4.4'-bipyridine]-3-carboxamide], the IC50 in test [1] (Biochemical assay IC50 (nM)) is < 50 nM and 3.98 nM. With `COc1cnc(Cl)cc1-c1cc(C)ncc1C(=O)Nc1nc2c(C(=O)O)cc(-c3c(C)cnn3C)cc2s1` [Example 164], the IC50 in test [1] (setting [3]) was found to be 8.32 nM.

Consider `COc1cnc(Cl)cc1-c1cc(C)ncc1C(=O)Nc1nc2cnc(-c3c(F)cnn3CCO)cc2s1` [Example 168], for which the half-maximal inhibitory concentration (IC50) in test [2] (setting [5]) was 4.46 nM. Turning to `COc1cnc(C(F)F)cc1-c1cc(C)ncc1C(=O)Nc1nc2cnc(-c3c(F)cnn3C)cc2s1` [Example 173], the IC50 in test [1] (setting [3]) was found to be 2.93 nM. Consider `COc1cnc(C(F)F)cc1-c1cc(C)ncc1C(=O)Nc1nc2cnc(-c3c(C)cnn3C)cc2s1` [Example 174], for which the IC50 in test [1] (setting [3]) stood at 2.93 nM. Take `COc1cnc(Cl)cc1-c1cc(C)ncc1C(=O)Nc1nc2cnc(-c3ncon3)cc2s1` [Example 181, N-(6-(1,2,4-oxadiazol-3-yl)thiazolo[4,5-c]pyridin-2-yl)-2'-chloro-5'-methoxy-6-methyl-[4,4'-bipyridine]-3-carboxamide]: the IC50 in test [1] (setting [3]) is 6.71 nM. Regarding `COc1cnc(C(F)F)cc1-c1cc(N2CCN(C)C3(CC3)C2=O)ncc1C(=O)Nc1nc2cnc(-c3c(C)nnn3C)cc2s1` [Example 197], in test [1] (setting [7]), the IC50 is 8.57 nM. `COc1cnc(Cl)cc1-c1cc(C)ncc1C(=O)Nc1nc2cnc(-c3c(C)nnn3C)c(C#N)c2s1` [Example 228, 2'-chloro-N-(7-cyano-6-(1,4-dimethyl-1H-1,2,3-triazol-5-yl)thiazolo[4,5-c]pyridin-2-yl)-5'-methoxy-6-methyl-[4,4'-bipyridine]-3-carboxamide]: the IC50 in test [1] (setting [3]) came to 111 nM. For the compound `COc1cnc(Cl)cc1-c1cc(C)ncc1C(=O)Nc1nc2cnc(-c3c(C)nnn3C)c(OC)c2s1` [Example 229, 2'-chloro-N-(6-(1,4-dimethyl-1H-1,2,3-triazol-5-yl)-7-methoxythiazolo[4,5-c]pyridin-2-yl)-5'-methoxy-6-methyl-[4,4'-bipyridine]-3-carboxamide], the IC50 in test [1] (setting [3]) is 36.7 nM.

Consider `[2H]C([2H])([2H])Oc1cnc(Cl)cc1-c1cc(C)ncc1C(=O)Nc1nc2cnc(-c3c(C)nnn3C)c(F)c2s1` [Example 230, 2'-chloro-N-(6-(1,4-dimethyl-1H-1,2,3-triazol-5-yl)-7-fluorothiazolo[4,5-c]pyridin-2-yl)-5'-(methoxy-d3)-6-methyl-[4,4'-bipyridine]-3-carboxamide], for which the IC50 in test [1] (setting [3]) turned out to be 2.84 nM. On to `[2H]C([2H])([2H])Oc1cnc(Cl)cc1-c1cc(C([2H])([2H])[2H])ncc1C(=O)Nc1nc2cnc(-c3c(C)nnn3C)c(F)c2s1` [Example 231, 2'-chloro-N-(6-(1,4-dimethyl-1H-1,2,3-triazol-5-yl)-7-fluorothiazolo[4,5-c]pyridin-2-yl)-5'-(methoxy-d3)-6-(methyl-d3)-[4,4'-bipyridine]-3-carboxamide], for which the IC50 in test [1] (setting [3]) amounted to 3.08 nM. `COc1cnc(Cl)cc1-c1cc(C)ncc1C(=O)Nc1nc2nc(F)c(-c3c(C)nnn3C)cc2s1` [Example 232]: the IC50 in test [1] (setting [7]) worked out at 2.51 nM. For `COc1cnc(Cl)cc1-c1cc(C)ncc1C(=O)Nc1nc2cnc(-c3c(C)nnn3C)c(C)c2s1` [Example 233, 2'-chloro-N-(6-(1,4-dimethyl-1H-1,2,3-triazol-5-yl)-7-methylthiazolo[4,5-c]pyridin-2-yl) -5'-methoxy-6-methyl-[4,4'-bipyridine]-3-carboxamide], the IC50 in test [1] (setting [3]) is 8.58 nM.
